The values that follow come from PubChem BioAssay (NCI).

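Five compound concentrations were applied to cells in 96-well plates for 48 hours; endpoints were derived by simple linear interpolation of the resulting dose-response curve. Abbreviation: GI50, concentration required for 50% inhibition of growth. TGI: concentration producing complete growth inhibition.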

Holding throughout (test): DTP human tumour cell line panel, 48 h
The test system of assay [1] is A498 renal.
Assay [2] has as its system A549 NSCLC.
In assay [3] the test system is DU-145 prostate.
Assay [4] relates to HCT-15 colon.
In assay [5] the test system is HOP-62 NSCLC.
In assay [6] the test system is HS 578T breast.
For assay [7], the system named is HT29 colon.
Assay [8] relates to MALME-3M melanoma.
The test system of assay [9] is SK-MEL-2 melanoma.
Assay [10] concerns UACC-257 melanoma.

As for `Cn1cc(-c2cc(-c3cn(C)c4ccc(Cl)cc34)[nH]n2)c2cc(Cl)ccc21`, the GI50 was 2.44 µM in assay [1]; 3.24 µM in assay [2]; 9.6 µM in assay [3]; 3.01 µM in [4]; 7.98 µM in assay [5]; 3.27 µM in assay [6]. Further, the GI50 in [7] is 3.57 µM; in assay [8], 9.64 µM; in assay [9] it was 2.34 µM; in assay [10], 4.26 µM. The TGI is 9.79 µM in assay [1]; 14.4 µM in [2]; greater than 100 µM in assay [3]; 15.1 µM in assay [4]; 94.8 µM in assay [5]; 20 µM in assay [6]. Further, the total growth inhibition concentration (TGI) in [7] was 18.1 µM; in assay [8], 67.4 µM; in assay [9] it was 6.13 µM; in assay [10], 34.2 µM.

In the case of `COc1ccc2c(c1)CN([C@@H](C)[C@H]1CC[C@H]3[C@@H]4CC[C@H]5C[C@@H](O)CC[C@]5(C)[C@H]4CC[C@]13C)CO2`, the TGI in assay [1] came to 3.45 µM; in [2], 4.51 µM; in assay [3], 13.7 µM; in assay [4] it was 3.75 µM; in assay [5], 4 µM; in assay [6], 4.14 µM. Besides, the TGI in [7] stood at 3.63 µM; in assay [8], 3.47 µM; in [9] it was 3.83 µM; in assay [10] it was 6.31 µM.

Regarding `CC(NC(=O)Cc1ccc(C(F)(F)P(=O)(OCc2ccc([N+](=O)[O-])o2)N(C)CCCCCl)cc1)c1ccc(OCC2CCCCC2)c(C(N)=O)c1` (stereo unspecified), the GI50 in assay [1] is 1.17 µM; in assay [2], 14.5 µM; in assay [3], 6.2 µM; in [4], 4.85 µM; in [5], 4.08 µM; in [6], 8.21 µM. Moreover, the GI50 is 5.8 µM in [7], 4.62 µM in [8], 6.48 µM in assay [9] and 17.5 µM in [10]. The TGI in [1] was found to be 24 µM; in assay [2] it was 58.7 µM; in [3], 16.7 µM; in [4], 16.1 µM; in assay [5] it was 12.1 µM; in assay [6], 38.4 µM. Moreover, the TGI in [7] was 21.2 µM; in [8], 16.3 µM; in assay [9], greater than 48.5 µM; in assay [10], 34.7 µM.

As for `CCCC1(CN2c3ccccc3Sc3ccc(Cl)cc32)CCN(CC)C1` (stereo unspecified), the GI50 in assay [1] was 1.6 µM; in assay [2] it was 1.78 µM; in assay [3], 1.81 µM; in assay [4] it was 1.88 µM; in assay [5], 1.59 µM; in assay [6], 1.83 µM. Further, the GI50 in [7] is 1.88 µM; in [8] it was 1.88 µM; in assay [9], 2.3 µM; in assay [10] it was 1.77 µM. The TGI came to 3.12 µM in assay [1]; 3.38 µM in [2]; 3.37 µM in assay [3]; 3.84 µM in assay [4]; 3.08 µM in assay [5]; 4.88 µM in assay [6]. The TGI is 3.75 µM in assay [7], 3.63 µM in assay [8], 4.28 µM in assay [9] and 3.56 µM in assay [10].

As to `CCCCCCCCCc1ccc(OCCOCCOCCOCCOCCOCCOCCOCCOCCO)cc1`, the GI50 was 0.665 µM in [1]; 0.414 µM in [2]; 1.24 µM in [3]; 0.761 µM in assay [4]; 0.412 µM in assay [5]; 1.17 µM in assay [6]. Also, the GI50 in assay [7] was 0.685 µM; in assay [8], 0.646 µM; in [9], 0.876 µM; in assay [10] it was 0.0567 µM. Further, the concentration for total growth inhibition (TGI) in assay [1] came to 3.8 µM; in assay [2], 3.69 µM; in [3], 4.65 µM; in [4], 1.84 µM; in [5] it was 1.05 µM; in assay [6], 9.03 µM. The TGI was determined as 1.98 µM in assay [7], 1.63 µM in assay [8], 1.96 µM in [9] and 0.812 µM in assay [10].

On to `Cc1cc(NCc2cc(Nc3ccnc4cc(Cl)ccc34)ccc2F)nc(N2CCOCC2)n1`, for which the GI50 was 1.46 µM in assay [1]; 3.89 µM in assay [2]; 3.2 µM in assay [3]; 2.07 µM in assay [6]; 2.21 µM in assay [7]; 1.99 µM in [9]. Further, the TGI in assay [1] stood at 6.89 µM; in [2], 21 µM; in assay [3] it was 12.5 µM; in assay [6] it was 6.97 µM; in assay [7], 5.68 µM; in assay [9], 4.7 µM.

For the molecule `C=C1C(=O)O[C@H]2[C@H]1CC/C(COC(=O)N[C@H]1C[C@H](O[C@H]3C[C@](O)(C(=O)CO)Cc4c(O)c5c(c(O)c43)C(=O)c3c(OC)cccc3C5=O)O[C@@H](C)[C@H]1O)=C\CC[C@@]1(C)O[C@@H]21`, the GI50 was 6.85 µM in assay [1]; greater than 50 µM in assay [2]; 12.1 µM in assay [3]; greater than 50 µM in assay [4]; 22.7 µM in assay [5]; 9.93 µM in assay [6]. Further, the GI50 in assay [7] is 4.48 µM; in [8], 0.879 µM; in assay [9] it was 7.97 µM; in assay [10], 7.17 µM. For the same molecule, the TGI in assay [1] is 29.4 µM; in assay [2], greater than 50 µM; in [3], greater than 50 µM; in [4] it was greater than 50 µM; in [5], greater than 50 µM; in assay [6], 34 µM. Also, the TGI in assay [7] is 22 µM; in assay [8], 1.9 µM; in assay [9] it was 17 µM; in [10], 13.7 µM.

Consider `O=C1c2cccnc2-c2nc(-c3cccnc3)cc3c2c1nc1ccccc13`, for which the GI50 is 17.7 µM in [1]; 3.97 µM in assay [2]; 3 µM in assay [3]; 1.63 µM in [4]; 1.73 µM in assay [5]; 2.94 µM in [6]. The GI50 in assay [7] is 2.52 µM; in assay [8] it was 17.6 µM; in assay [9], 18 µM; in [10], 10.1 µM. The TGI is 46.8 µM in assay [1]; 15.6 µM in assay [2]; 8.31 µM in [3]; 4.58 µM in [4]; 3.22 µM in assay [5]; greater than 20.9 µM in [6]. In addition, the TGI in assay [8] was determined as 32.4 µM; in [9], 33.8 µM; in assay [10], 15.1 µM.

The GI50 is the concentration at which growth is held to half of that of the control. For orientation: TGI means the concentration at which net growth stops. Higher therefore signals lower sensitivity of the cells.
